Experimental findings from US8309790B2, “Animal models for demyelination disorders” (University of Chicago, priority 2005, dated 2012) are described below.

The subject of one assay is mice with EAE. The assay is described as follows: EAE, CNS delivery of INF-γ at the onset of EAE, double (PERK+/+) and triple (PERK+/−) mice. The format is in vivo. To be noted: for Mean of maximum clinical score (mean ± S.D.): 0-5 point scale; for Day of onset of disease (PID: postimmunization day): n = 25; for expression of iNOs, TNF-a, IL-2, IL-12 and IL-10 in the spinal cord: PID 14 (EAE onset), DOX− vs DOX+.

Assay [1] relates to corpus callosum of GFAP/tTA; TRE/IFN-γ; PERK+/− mice. Put plainly: Remyelination after cuprizone in double transgenic mice on PERK+/+ or PERK+/− background. As to conditions: for remyelinated axons: 9 weeks. It counts as in vivo. An excerpt:
The involvement of the ER stress response in the reduction caused by IFN-γ to remyelinate lesions was examined in transgenic mice that were generated to be heterozygous for a loss of function mutation in pancreatic ER kinase (PERK) (Harding, et al., (2001) Mol Cell 7:1153-1163), and to be temporally regulated for expressing INF-γ in the CNS. TRE/IFN-γ mice were first crossed with PERK+/− mice (Harding, et al. (2001) Mol. Cell 7: 1153-1163) on the C57BL/6 background to generate mice the carry the PERK mutation, and the resulting progeny were crossed to GFAP/tTA mice to obtain transgenic mice that were heterozygous for the PERK mutation. The effect of PERK on remyelination in the presence or absence of INF-γ was evaluated as evaluated as a function of the level of myelination of oligodendrocytes in remyelinating lesions and the number of oligodendrocytes present in the remyelinating lesion.
The extent of remyelination was assessed as described in the previous examples in the corpus callosum of PERK+/+ and PERK+/− mice that were made to express INF-γ (DOX− PERK+/+ and DOX− PERK+/−), and in mice in which the expression of INF-γ was repressed (DOX+ PERK+/+ and DOX+ PERK+/−). Remyelination was determined by electron microscopy, and was related to the number of CC1 positive oligodendrocytes and the level of caspase-3 expression in the corpus callosum of all animals. The level of caspase-3 was determined by immunohistochemical methods using anti capsase antibody (active-casoase-3 antibody, 1:50; Cel Signaling Technology) and according to the method described in Example 1. Demyelination was induced in six-week-old GFAP/tTA; TRE/IFN-γ double transgenic mice on a PERK+/− background that had been maintained on doxycycline, by simultaneously treating the mice with 0.2% cuprizone and releasing them from doxycycline (DOX− PERK+/−). Remyelination was allowed to occur by withdrawing cuprizone at week 6.

For assay [2], the system named is Hippocampal organotypic cultures. The assay is described as follows: Hippocampal organotypic cultures (HOC), in vitro model of myelination, MBP Western blot. The format is cell-based. To be noted: 7 days of 100 U/ml IFN-γ exposure. How it is done: Our hypothesis is that the integrated stress response has the potential to protect oligodendrocytes from the harmful effects of the inflammatory response in patients with multiple sclerosis (MS). […] To test whether agents that prolong eIF2α phosphorylation might provide protection to oligodendrocytes against detrimental inflammatory factors, the effect of Salubrinol (Sal) in the presence of the immune cytokine IFN-γ was tested in an in vitro model of myelination.
HOCs, were prepared and maintained as described previously (Kunkler and Kraig (1997) J Cereb Blood Flow Metab. 17:26-43), and were maintained in vitro for 7 days before use. SAL at various concentrations was combined with 100 U/ml IFN-γ and added to the HOC cultures for 7 days. […] After 7 days of 100 U/ml IFN-γ exposure, the levels of MBP decreased approximately 80% in the HOCs (FIG. 29).
On the technique in general: A western blot detects proteins with antibodies after separation by electrophoresis.

“And” between values parts separate entries of the source, which are not always exact repeats. Identical values can stand only once.

As for interferon-γ [IFN-γ], the “Mean of maximum clinical score (mean ± S.D.)” value in the assay on mice with EAE (DOX− double mice) is given as 1.63 ± 0.51; in the assay on mice with EAE (DOX− triple mice (PERK+/−)) it was 2.71 ± 1.11. In the assay on mice with EAE (DOX− double mice, PID17, real-time PCR), the “MBP mRNA in the spinal cord compared to age-matched naïve mice” value is “not significantly decreased”. Moreover, the “Day of onset of disease (PID: postimmunization day)” value with mice with EAE (DOX− double mice) is listed as 14.7 ± 1.4; with mice with EAE (DOX− triple mice (PERK+/−)), 13.6 ± 0.8. Also, the “Incidence of hind limb paralysis” value with mice with EAE (DOX− double mice, listed as INF-γ) was 2 of 25 and 2/25; with mice with EAE (DOX− triple mice (PERK+/−)) it was 18/25. For the same substance, the “expression of iNOs, TNF-a, IL-2, IL-12 and IL-10 in the spinal cord” value with mice with EAE was “strongly enhanced”; with mice with EAE (listed as INF-γ), “increased”. The “expression of IL-2 and IL-5 in the spinal cord” value in the assay on mice with EAE (PID 14, DOX− vs DOX+) is “did not affect”. In addition, the “CD3 positive T cell infiltration in the spinal cord” value with mice with EAE (at EAE onset) is given as “did not significantly affect”. For the same substance, in the assay on mice with EAE (at EAE onset), the “CD11b positive monocyte infiltration in the spinal cord” value is listed as “increased”. Also, the “CD11b positive monocyte infiltration” value in the assay on mice with EAE (at the peak of disease) is reported as “did not change”. Besides, the “expression of iNOs or TNF-γ” value in the assay with mice with EAE (at the peak of disease) is listed as “did not significantly affect”. In addition, the EAE disease course entry in the assay on mice with EAE (mice heterozygous for the PERK mutation) is “did not ameliorate”. Besides, the “PERK-eIF2α pathway in oligodendrocytes (p-PERK, p-eIF2α, CC1 colocalization)” value with mice with EAE (spinal cord, EAE onset) is recorded as “markedly activated”. Further, the remyelinated axons in assay [1] (DOX− PERK+/+ mice) was 31.1%±7.6%; in assay [1] (DOX− PERK+/− mice, 3 weeks after cuprizone removed), 15.6%±7.6%. Moreover, in assay [1] (DOX− PERK+/+ mice, corpus callosum, week 9), the “number of CC1 positive oligodendrocytes” value was 123.2±27.5 /0.04 mm^2. In assay [1] (DOX− PERK+/− mice, week 9), the “CC1 positive oligodendrocytes in the corpus callosum” value is recorded as “only a few oligodendrocytes were detected”. In assay [1] (week 9), the “number of oligodendrocytes positive for caspase-3, DOX− PERK+/− relative to DOX− PERK+/+” value was found to be 2.3 times. Also, in assay [2], the “decrease of the levels of MBP” value was “approximately 80%”.
